In patent publication US7981903B2, “2-[2-{phenylamino}-1H-pyrrolo[2,3-D]pyrimidin-4-yl)amino] benzamide derivatives as IGF-1R inhibitors for the treatment of cancer” (GlaxoSmithKline LLC, priority 2007, dated 2011):
Several values for one entry are separate records, joined by “and”; a condition that tells them apart may be missing. Equal values may be shown once.

Experiments:
human IR (hIR) = target: T1, human IR (hIR) (Homo sapiens, UniProt P06213); assay: TR-FRET kinase assay of purified hIR; format: biochemical; conditions: activated hIR 0.5 nM, 10 μM ATP, values given as pIC50 category
T1 construct: containing amino acid residues 979-1382 of human IR; made in house; host or cells: Sf9 cells (baculovirus), same process as hIGF1R

[1] = target: T2, NIH-3T3 cells overexpressing human IGF-1R (Homo sapiens, UniProt P08069); assay: IGF-1R cellular autophosphorylation (DELFIA); format: cell-based
T2 construct: expressed in transfected cells; host or cells: NIH-3T3 (mouse fibroblasts)
Outline: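 Receptor autophosphorylation measured by DELFIA, capturing IGF-1R or IRβ and detecting with europium anti-pTyr, reported as percent of IGF-1- or insulin-stimulated signal. Compounds (30 uM to 1.5 nM) added 2 h before ligand, then 15 min stimulation (IGF-1 30 ng/ml or insulin 3 ug/ml).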

human IGF1R (hIGF1R) = target: T3, human IGF1R (hIGF1R) (Homo sapiens, UniProt P08069); assay: TR-FRET kinase assay of purified hIGF1R; format: biochemical; conditions: activated hIGF1R 0.5 nM, 10 μM ATP, values given as pIC50 category, read-out: IGF-1R pIC50 (converted)
T3 construct: containing amino acid residues 957-1367 of human IGF1R; made in house; host or cells: Sf9 cells (baculovirus)
T3 sequence (P08069 957-1367): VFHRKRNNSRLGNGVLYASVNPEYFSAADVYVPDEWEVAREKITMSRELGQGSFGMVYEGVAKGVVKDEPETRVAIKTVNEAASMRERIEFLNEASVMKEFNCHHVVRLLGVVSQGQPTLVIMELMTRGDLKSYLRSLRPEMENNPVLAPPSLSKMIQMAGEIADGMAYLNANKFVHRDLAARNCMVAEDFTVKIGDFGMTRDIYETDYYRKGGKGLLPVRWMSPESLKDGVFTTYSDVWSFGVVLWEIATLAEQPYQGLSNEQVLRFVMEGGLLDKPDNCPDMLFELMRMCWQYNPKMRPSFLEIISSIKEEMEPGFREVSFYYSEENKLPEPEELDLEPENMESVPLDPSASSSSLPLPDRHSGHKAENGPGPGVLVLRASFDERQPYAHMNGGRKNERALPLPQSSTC

T1 sequence (P06213 979-1382): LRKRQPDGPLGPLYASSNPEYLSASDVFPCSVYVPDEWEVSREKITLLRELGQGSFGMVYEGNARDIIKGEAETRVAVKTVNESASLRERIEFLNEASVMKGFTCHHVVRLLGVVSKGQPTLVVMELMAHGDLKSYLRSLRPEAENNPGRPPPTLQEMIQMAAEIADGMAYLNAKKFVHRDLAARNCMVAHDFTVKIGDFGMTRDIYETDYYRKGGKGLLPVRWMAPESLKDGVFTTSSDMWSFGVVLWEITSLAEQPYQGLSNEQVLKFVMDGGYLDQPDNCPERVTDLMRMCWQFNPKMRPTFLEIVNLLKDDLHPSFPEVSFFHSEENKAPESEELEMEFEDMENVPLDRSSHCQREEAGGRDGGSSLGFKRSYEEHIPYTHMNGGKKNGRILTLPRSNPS
T2 sequence (P08069 31-1367): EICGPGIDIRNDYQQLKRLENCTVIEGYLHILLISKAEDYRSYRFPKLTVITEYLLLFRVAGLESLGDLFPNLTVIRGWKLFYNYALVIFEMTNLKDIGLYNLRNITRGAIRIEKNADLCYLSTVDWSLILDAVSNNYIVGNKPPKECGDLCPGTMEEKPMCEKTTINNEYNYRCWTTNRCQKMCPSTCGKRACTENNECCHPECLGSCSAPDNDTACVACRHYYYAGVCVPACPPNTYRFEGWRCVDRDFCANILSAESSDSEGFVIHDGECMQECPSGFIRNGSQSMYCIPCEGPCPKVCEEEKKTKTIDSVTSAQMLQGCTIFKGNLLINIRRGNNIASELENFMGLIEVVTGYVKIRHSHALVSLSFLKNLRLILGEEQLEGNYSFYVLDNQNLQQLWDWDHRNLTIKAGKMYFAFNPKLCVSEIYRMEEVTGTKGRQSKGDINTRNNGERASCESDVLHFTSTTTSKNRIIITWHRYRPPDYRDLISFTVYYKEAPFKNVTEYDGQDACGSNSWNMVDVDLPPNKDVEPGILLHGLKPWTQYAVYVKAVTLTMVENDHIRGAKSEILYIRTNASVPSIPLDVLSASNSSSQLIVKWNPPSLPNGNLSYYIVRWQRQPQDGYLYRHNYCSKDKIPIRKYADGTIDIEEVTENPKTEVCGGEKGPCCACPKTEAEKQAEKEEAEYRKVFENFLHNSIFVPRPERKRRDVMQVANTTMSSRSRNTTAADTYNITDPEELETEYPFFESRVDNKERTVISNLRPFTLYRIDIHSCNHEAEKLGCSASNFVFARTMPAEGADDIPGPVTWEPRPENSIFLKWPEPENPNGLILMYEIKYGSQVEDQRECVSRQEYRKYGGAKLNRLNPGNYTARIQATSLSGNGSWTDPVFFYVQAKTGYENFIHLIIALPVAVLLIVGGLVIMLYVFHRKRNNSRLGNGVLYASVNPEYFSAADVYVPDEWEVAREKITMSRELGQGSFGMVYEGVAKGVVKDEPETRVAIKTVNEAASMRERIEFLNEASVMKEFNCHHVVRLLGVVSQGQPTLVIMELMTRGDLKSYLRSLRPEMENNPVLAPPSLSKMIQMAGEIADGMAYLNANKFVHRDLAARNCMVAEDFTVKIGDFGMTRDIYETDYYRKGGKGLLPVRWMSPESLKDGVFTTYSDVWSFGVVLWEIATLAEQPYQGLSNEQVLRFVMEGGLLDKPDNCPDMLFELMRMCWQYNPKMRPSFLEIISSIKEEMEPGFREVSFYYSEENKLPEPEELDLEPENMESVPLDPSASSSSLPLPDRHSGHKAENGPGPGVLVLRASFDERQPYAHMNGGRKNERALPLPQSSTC

Structure (SMILES)	IC50 (human IR (hIR))	IC50 [1] [nM]	IC50 (human IGF1R (hIGF1R)) [nM]
CCN(CCO)CC(=O)N1CCc2cc(OC)c(Nc3nc(Nc4cccc(F)c4C(N)=O)c4cc[nH]c4n3)cc21 [Example 177, 2-[(2-{[1-[N-ethyl-N-(2-hydroxyethyl)glycyl]-5-(methyloxy)-2,3-dihydro-1H-indol-6-yl]amino}-1H-pyrrolo[2,3-d]pyrimidin-4-yl)amino]-6-fluorobenzamide]	1.26 to 3.98 nM	100 to 500	1.26 to 3.98
CNC(=O)c1c(F)cccc1Nc1nc(Nc2cc3c(cc2OC)N(C(=O)CN(C)C)CC3)nc2[nH]ccc12 [Example 198, 2-[(2-{[1-(N,N-dimethylglycyl)-6-(methyloxy)-2,3-dihydro-1H-indol-5-yl]amino}-1H-pyrrolo[2,3-d]pyrimidin-4-yl)amino]-6-fluoro-N-methylbenzamide]	1.26 to 3.98 nM	> 500	1.26 to 3.98
CCCN1CCC(COc2ccc(Nc3nc(Nc4cccc(F)c4C(N)=O)c4cc[nH]c4n3)c(OC)c2)CC1 [Example 206, 2-fluoro-6-({2-[(2-(methyloxy)-4-{[(1-propyl-4-piperidinyl)methyl]oxy}phenyl)amino]-1H-pyrrolo[2,3-d]pyrimidin-4-yl}amino)benzamide]	1.26 to 3.98 nM	100 to 500	1.26 to 3.98
CNC(=O)c1c(F)cccc1Nc1nc(Nc2cc3c(cc2OC)CCCN3C(=O)CN(C)C)nc2[nH]ccc12 [Example 212, 2-[(2-{[1-(N,N-dimethylglycyl)-6-(methyloxy)-1,2,3,4-tetrahydro-7-quinolinyl]amino}-1H-pyrrolo[2,3-d]pyrimidin-4-yl)amino]-6-fluoro-N-methylbenzamide]	1.26 to 3.98 nM	100 to 500	1.26 to 3.98
CNC(=O)c1c(F)cccc1Nc1nc(Nc2cc3c(cc2OC)CCCN3C(=O)CN2CCCCC2)nc2[nH]ccc12 [Example 217, 2-fluoro-N-methyl-6-[(2-{[6-(methyloxy)-1-(1-piperidinylacetyl)-1,2,3,4-tetrahydro-7-quinolinyl]amino}-1H-pyrrolo[2,3-d]pyrimidin-4-yl)amino]benzamide]	1.26 to 3.98 nM	< 100	1.26 to 3.98
COc1cc2c(cc1Nc1nc(Nc3cccc(F)c3C(N)=O)c3cc[nH]c3n1)CN(CCF)CC2 [Example 233, 2-fluoro-6-[(2-{[2-(2-fluoroethyl)-6-(methyloxy)-1,2,3,4-tetrahydro-7-isoquinolinyl]amino}-1H-pyrrolo[2,3-d]pyrimidin-4-yl)amino]benzamide]	1.26 to 3.98 nM	100 to 500	1.26 to 3.98
COc1cc2c(cc1Nc1nc(Nc3cccc(F)c3C(N)=O)c3cc[nH]c3n1)CN(C(C)C)CC2 [Example 236, 2-fluoro-6-[(2-{[2-(1-methylethyl)-6-(methyloxy)-1,2,3,4-tetrahydro-7-isoquinolinyl]amino}-1H-pyrrolo[2,3-d]pyrimidin-4-yl)amino]benzamide]	1.26 to 3.98 nM	100 to 500	1.26 to 3.98
CCC(C)N1CCc2cc(OC)c(Nc3nc(Nc4cccc(F)c4C(N)=O)c4cc[nH]c4n3)cc2C1 (stereo not drawn) [Example 237, 2-fluoro-6-[(2-{[6-(methyloxy)-2-(1-methylpropyl)-1,2,3,4-tetrahydro-7-isoquinolinyl]amino}-1H-pyrrolo[2,3-d]pyrimidin-4-yl)amino]benzamide]	1.26 to 3.98 nM	100 to 500	1.26 to 3.98
CNC(=O)c1c(F)cccc1Nc1nc(Nc2cc(NC(=O)CN(C)C)ccc2OC)nc2[nH]ccc12 [Example 245, 2-[(2-{[5-[(N,N-dimethylglycyl)amino]-2-(methyloxy)phenyl]amino}-1H-pyrrolo[2,3-d]pyrimidin-4-yl)amino]-6-fluoro-N-methylbenzamide]	0.251 to 1 nM and 1.26 to 3.98 nM	> 500	1.26 to 3.98
Cc1cc2c(cc1Nc1nc(Nc3cccc(F)c3C(N)=O)c3cc[nH]c3n1)N(C(=O)CN(C)C)CCC2 [Example 246, 2-[(2-{[1-(N,N-dimethylglycyl)-6-methyl-1,2,3,4-tetrahydro-7-quinolinyl]amino}-1H-pyrrolo[2,3-d]pyrimidin-4-yl)amino]-6-fluorobenzamide]	0.251 to 1 nM and 1.26 to 3.98 nM	100 to 500	1.26 to 3.98
CNC(=O)c1c(F)cccc1Nc1nc(Nc2cc3c(cc2OC)CCN3C(=O)CN(C)C)nc2[nH]cc(F)c12 [Example 253, 2-[(2-{[1-(N,N-dimethylglycyl)-5-(methyloxy)-2,3-dihydro-1H-indol-6-yl]amino}-5-fluoro-1H-pyrrolo[2,3-d]pyrimidin-4-yl)amino]-6-fluoro-N-methylbenzamide]	1.26 to 3.98 nM	100 to 500	1.26 to 3.98

Second part, the compound after the results:

IC50 (human IR (hIR))	IC50 [1] [nM]	IC50 (human IGF1R (hIGF1R)) [nM]	Structure (SMILES)
1.26 to 3.98 nM	100 to 500	1.26 to 3.98	CCCN(C)CC(=O)N1CCc2cc(OC)c(Nc3nc(Nc4cccc(F)c4C(=O)NC)c4cc[nH]c4n3)cc21 [Example 167, 2-fluoro-N-methyl-6-[(2-{[5-(methyloxy)-1-(N-methyl-N-propylglycyl)-2,3-dihydro-1H-indol-6-yl]amino}-1H-pyrrolo[2,3-d]pyrimidin-4-yl)amino]benzamide]
1.26 to 3.98 nM	100 to 500	1.26 to 3.98	CNC(=O)c1c(F)cc(Cl)cc1Nc1nc(Nc2cc3c(cc2OC)CCCN3C(=O)CN2CCCC2)nc2[nH]ccc12 [Example 174, 4-chloro-2-fluoro-N-methyl-6-[(2-{[6-(methyloxy)-1-(1-pyrrolidinylacetyl)-1,2,3,4-tetrahydro-7-quinolinyl]amino}-1H-pyrrolo[2,3-d]pyrimidin-4-yl)amino]benzamide]
0.251 to 1 nM	100 to 500	1.26 to 3.98	COc1cc2c(cc1Nc1nc(Nc3cccc(F)c3C(N)=O)c3cc[nH]c3n1)CCN2C(=O)CN(C)C [Example 197, 2-[(2-{[1-(N,N-dimethylglycyl)-6-(methyloxy)-2,3-dihydro-1H-indol-5-yl]amino}-1H-pyrrolo[2,3-d]pyrimidin-4-yl)amino]-6-fluorobenzamide]
1.26 to 3.98 nM	< 100	1.26 to 3.98	COc1cc(N2CCN(C(C)C)CC2)ccc1Nc1nc(Nc2cccc3c2C(=O)NC3)c2cc[nH]c2n1 [Example 199, 7-[(2-{[4-[4-(1-methylethyl)-1-piperazinyl]-2-(methyloxy)phenyl]amino}-1H-pyrrolo[2,3-d]pyrimidin-4-yl)amino]-2,3-dihydro-1H-isoindol-1-one]
1.26 to 3.98 nM	100 to 500	1.26 to 3.98	COc1cc(N2CCCN(C)CC2)ccc1Nc1nc(Nc2cccc(F)c2C(N)=O)c2cc[nH]c2n1 [Example 209, 2-fluoro-6-[(2-{[4-(4-methylhexahydro-1H-1,4-diazepin-1-yl)-2-(methyloxy)phenyl]amino}-1H-pyrrolo[2,3-d]pyrimidin-4-yl)amino]benzamide]
1.26 to 3.98 nM	> 500	1.26 to 3.98	COc1cc2c(cc1Nc1nc(Nc3cc(F)cc(F)c3C(N)=O)c3cc[nH]c3n1)CN(CCF)CC2 [Example 239, 2,4-difluoro-6-[(2-{[2-(2-fluoroethyl)-6-(methyloxy)-1,2,3,4-tetrahydro-7-isoquinolinyl]amino}-1H-pyrrolo[2,3-d]pyrimidin-4-yl)amino]benzamide]
